Measurements reported in US8178658B2 (Dow AgroSciences, LLC, priority 2008, dated 2012).

Legend:
[1] = test system: beet armyworm (BAW; Spodoptera exigua: Lepidoptera); assay: 96-well microtiter plate-based high throughput (HTS) diet bioassay on beet armyworm (BAW HTS); type: in vivo; details: BAW eggs, 12 μg test compound per well, mortality at 6 d post-treatment, mortality class
Description: (§1) Bioassays on beet armyworm (BAW; Spodoptera exigua: Lepidoptera) were conducted using either a 96-well microtiter plate-based high throughput (HTS) bioassay or a 128-well diet tray assay. The HTS assay is a based on a modification of Lewer et al. J. Nat. Prod. 2006, 69, 1506. BAW eggs of were placed on top of artificial diet (100 μl) in each well of 96-well microtiter plate. The diet was pretreated with test compounds (12 μg dissolved in 30 μL of DMSO-acetone-water mixture) layered on top of the diet using a liquid handling system and then allowed to dry for several hours. Infested plates were then covered with a layer of sterile cotton batting and the plate lid, and then held in the dark at 29° C. Mortality was recoded at 6 d post-treatment. Each plate had six replicates. The percent mortality was calculated from the average of the six replicates. In the case of the 128-well diet assay, three to five second instar BAW larvae were placed in each well (3 mL) of the diet tray that had been previously filled with 1 mL of artificial diet to which 50 μg/cm^2 of the test compound (dissolved in 50 μL of 90:10 acetone-water mixture) had been applied (to each of eight wells) and then allowed to dry. Trays were covered with a clear self-adhesive cover, and held at 25° C., 14:10 light-dark for six days. Percent mortality was recorded for the larvae in each well; activity in the eight wells was then averaged. In Table 7, under the BAW HTS or BAW 50 heading, an “A” means that the compound was tested and at least 50 percent mortality was observed whereas, “B” means that either (1) the compound was tested and less than 50 percent mortality was observed or (2) the compound was not tested.

[2] = test system: beet armyworm (BAW; Spodoptera exigua: Lepidoptera); assay: 128-well diet tray assay on beet armyworm (BAW 50); type: in vivo; details: 128-well diet tray assay, second instar BAW larvae, mortality class
Description: as §1

[3] = 96-well microtiter plate HTS diet assay
[4] = 50 μg/cm^2 of test compound on diet

Row | Compound | BAW HTS ([1]; 96-well HTS diet bioassay) | BAW HTS [1, 3] | BAW 50 ug/cm2 [2, 4] | pest or weed control at 12 µg/well, 12 µg/well ([1]; Spodoptera exigua, 144 h, 96-well microtiter plate HTS diet assay, read-out: BAW HTS) [%] | BAW 50 ug/cm2 ([2]; 50 μg/cm2 of test compound on diet) | pest or weed control at 50 µg/cm2, 50 µg/cm2 ([2]; Spodoptera exigua, 144 h, 50 μg/cm^2 of test compound on diet, read-out: BAW 50 ug/cm2) [%]
1 | COC1C(C)OC(ON=Cc2ccc(-c3ccn(-c4ccc(OC(F)(F)F)cc4)n3)cc2)C(OC)C1OC (stereo not shown) [Compound 12] | B (either (1) the compound was tested and less than 50 percent mortality was observed or (2) the compound was not tested) | B (either (1) the compound was tested and less than 50 percent mortality was observed or (2) the compound was not tested) | A (the compound was tested and at least 50 percent mortality was observed) | – | – | –
2 | COC1C(C)OC(ON=Cc2ccc(C3=NN(c4ccc(OC(F)(F)F)cc4)CC3)cc2)C(OC)C1OC (stereo not shown) [Compound 15] | B (either (1) the compound was tested and less than 50 percent mortality was observed or (2) the compound was not tested) | B (either (1) the compound was tested and less than 50 percent mortality was observed or (2) the compound was not tested) | A (the compound was tested and at least 50 percent mortality was observed) | – | – | –
3 | COC1C(C)OC(ON=Cc2ccc(-n3cnc(-c4ccc(Br)cc4)c3)cc2)C(OC)C1OC (stereo not shown) [Compound 16] | A (the compound was tested and at least 50 percent mortality was observed) | A (the compound was tested and at least 50 percent mortality was observed) | B (either (1) the compound was tested and less than 50 percent mortality was observed or (2) the compound was not tested) | – | – | –
4 | COC1C(C)OC(ON=Cc2ccc(-c3cn(-c4cccc(Cl)c4C#N)cn3)cc2)C(OC)C1OC (stereo not shown) [Compound 17] | A (the compound was tested and at least 50 percent mortality was observed) | A (the compound was tested and at least 50 percent mortality was observed) | B (either (1) the compound was tested and less than 50 percent mortality was observed or (2) the compound was not tested) | – | – | –
5 | COC1C(C)OC(ON=Cc2ccccc2-c2cn(-c3ccc(OC(F)(F)F)cc3)cn2)C(OC)C1OC (stereo not shown) [Compound 19] | B (either (1) the compound was tested and less than 50 percent mortality was observed or (2) the compound was not tested) | B (either (1) the compound was tested and less than 50 percent mortality was observed or (2) the compound was not tested) | B (either (1) the compound was tested and less than 50 percent mortality was observed or (2) the compound was not tested) | – | – | –
6 | COC1C(C)OC(ON=Cc2c(F)ccc(-c3cn(-c4ccc(OC(F)(F)F)cc4)cn3)c2F)C(OC)C1OC (stereo not shown) [Compound 21] | A (the compound was tested and at least 50 percent mortality was observed) | A (the compound was tested and at least 50 percent mortality was observed) | B (either (1) the compound was tested and less than 50 percent mortality was observed or (2) the compound was not tested) | – | – | –
7 | COC1C(C)OC(ON=Cc2ccc(-c3cn(-c4cccc(F)n4)cn3)cc2)C(OC)C1OC (stereo not shown) [Compound 22] | B (either (1) the compound was tested and less than 50 percent mortality was observed or (2) the compound was not tested) | B (either (1) the compound was tested and less than 50 percent mortality was observed or (2) the compound was not tested) | B (either (1) the compound was tested and less than 50 percent mortality was observed or (2) the compound was not tested) | – | – | –
8 | COC1C(C)OC(ON=Cc2ccc(-c3cn(-c4cc(I)ccn4)cn3)cc2)C(OC)C1OC (stereo not shown) [Compound 23] | B (either (1) the compound was tested and less than 50 percent mortality was observed or (2) the compound was not tested) | B (either (1) the compound was tested and less than 50 percent mortality was observed or (2) the compound was not tested) | B (either (1) the compound was tested and less than 50 percent mortality was observed or (2) the compound was not tested) | – | – | –
9 | COC1C(C)OC(ON=Cc2ccc(-c3cn(-c4cc(F)cc(F)c4)cn3)cc2)C(OC)C1OC (stereo not shown) [Compound 24] | A (the compound was tested and at least 50 percent mortality was observed) | A (the compound was tested and at least 50 percent mortality was observed) | B (either (1) the compound was tested and less than 50 percent mortality was observed or (2) the compound was not tested) | – | – | –
10 | COc1ccc(-c2cn(-c3ccc(OC(F)(F)F)cc3)cn2)cc1C=NOC1OC(C)C(OC)C(OC)C1OC (stereo not shown) [Compound 25] | B (either (1) the compound was tested and less than 50 percent mortality was observed or (2) the compound was not tested) | B (either (1) the compound was tested and less than 50 percent mortality was observed or (2) the compound was not tested) | B (either (1) the compound was tested and less than 50 percent mortality was observed or (2) the compound was not tested) | – | – | –
11 | CO[C@@H]1[C@@H](OC)[C@H](C)O[C@@H](O/N=C/c2ccc(-c3cn(-c4ccc(OC(F)(F)F)cc4)cn3)cc2)[C@@H]1OC [Compound 26, 4-[1-(4-Trifluoromethoxyphenyl)-1H-imidazol-4-yl]-benzaldehyde O-((2S,3R,4R,5S,6S)-3,4,5-trimethoxy-6-methyl-tetrahydropyran-2-yl)-oxime] | A (the compound was tested and at least 50 percent mortality was observed) | – | – | > 50 | A (the compound was tested and at least 50 percent mortality was observed) | > 50
12 | CCCc1ccc(-n2cnc(-c3ccc(C=NOC4OC(C)C(OC)C(OC)C4OC)cc3)c2)cc1 (stereo not shown) [Compound 27] | A (the compound was tested and at least 50 percent mortality was observed) | A (the compound was tested and at least 50 percent mortality was observed) | A (the compound was tested and at least 50 percent mortality was observed) | – | – | –
13 | CCCc1ccc(-n2cnc(-c3ccc(/C=N/O[C@@H]4O[C@@H](C)[C@H](OC)[C@@H](OCC)[C@H]4OC)cc3)c2)cc1 [Compound 29] | B (either (1) the compound was tested and less than 50 percent mortality was observed or (2) the compound was not tested) | B (either (1) the compound was tested and less than 50 percent mortality was observed or (2) the compound was not tested) | A (the compound was tested and at least 50 percent mortality was observed) | – | – | –
14 | COC1C(C)OC(ON=Cc2ccc(-c3cn(-c4ccc(OC(F)(F)F)cc4)cn3)cc2)C(OC)C1OC (stereo not shown) [Compound 30] | A (the compound was tested and at least 50 percent mortality was observed) | A (the compound was tested and at least 50 percent mortality was observed) | A (the compound was tested and at least 50 percent mortality was observed) | – | – | –
15 | COC1C(C)OC(ON=Cc2ccc(-c3cn(-c4ccc(C(F)(F)F)cn4)cn3)cc2)C(OC)C1OC (stereo not shown) [Compound 32] | A (the compound was tested and at least 50 percent mortality was observed) | A (the compound was tested and at least 50 percent mortality was observed) | A (the compound was tested and at least 50 percent mortality was observed) | – | – | –
16 | CCOC1C(C)OC(ON=Cc2ccc(-c3cn(-c4ccc(C(F)(F)F)cn4)cn3)cc2)C(OCC)C1OCC (stereo not shown) [Compound 33] | A (the compound was tested and at least 50 percent mortality was observed) | A (the compound was tested and at least 50 percent mortality was observed) | A (the compound was tested and at least 50 percent mortality was observed) | – | – | –
17 | COC1C(C)OC(ON=Cc2ccc(-c3cn(-c4cc(Br)ccc4Cl)cn3)cc2)C(OC)C1OC (stereo not shown) [Compound 34] | B (either (1) the compound was tested and less than 50 percent mortality was observed or (2) the compound was not tested) | B (either (1) the compound was tested and less than 50 percent mortality was observed or (2) the compound was not tested) | A (the compound was tested and at least 50 percent mortality was observed) | – | – | –
